Biological target: T1, human EP4 receptors (Homo sapiens, UniProt P35408)
T1 construct: expressed in transfected cells
Assay: cAMP assay in human EP4 transfectant
Assay type: cell-based
Conditions: HEK293 cells expressing human EP4 receptors; 1 nM PGE2, 0.2 mM IBMX, 37° C. for 10 min
Experimental: cAMP Assay in Human EP4 Transfectant HEK293 cells expressing human EP4 receptors (hEP4 cells) are maintained in DMEM containing 10% FBS and 500 μg/ml geneticin. For harvesting hEP4 cells, culture medium is aspirated and cells in 75 cm^2 flask are washed with 10 ml of phosphate buffered saline (PBS). Another 10 ml of PBS is added to the cells and incubated for 20 min at room temperature. Human EP4 cells are harvested by pipetting and centrifuged at 300×g for 4 min. Cells are resuspended in DMEM without neutral red at a density of 7×10^5 cells/ml containing 0.2 mM IBMX (PDE inhibitor), 1 nM PGE2 and test compounds in PCR-tubes, and incubated at 37° C. for 10 min. The reaction is stopped by heating at 100° C. for 10 min with thermal cycler. Concentration of cAMP in reaction mixtures is determined with SPA cAMP Kit (Amersham) or cAMP Screen™ (Applied Biosystems) according to the manufacture's instruction. Reference: Eur. J. Pharmacol. 340 (1997) 227-241 cAMP assay in human EP4 transfectant were conducted using the method described above. IC50: the concentration of the individual compound required to reduce the amount of ligand by 50%.

T1 sequence (P35408 whole entry): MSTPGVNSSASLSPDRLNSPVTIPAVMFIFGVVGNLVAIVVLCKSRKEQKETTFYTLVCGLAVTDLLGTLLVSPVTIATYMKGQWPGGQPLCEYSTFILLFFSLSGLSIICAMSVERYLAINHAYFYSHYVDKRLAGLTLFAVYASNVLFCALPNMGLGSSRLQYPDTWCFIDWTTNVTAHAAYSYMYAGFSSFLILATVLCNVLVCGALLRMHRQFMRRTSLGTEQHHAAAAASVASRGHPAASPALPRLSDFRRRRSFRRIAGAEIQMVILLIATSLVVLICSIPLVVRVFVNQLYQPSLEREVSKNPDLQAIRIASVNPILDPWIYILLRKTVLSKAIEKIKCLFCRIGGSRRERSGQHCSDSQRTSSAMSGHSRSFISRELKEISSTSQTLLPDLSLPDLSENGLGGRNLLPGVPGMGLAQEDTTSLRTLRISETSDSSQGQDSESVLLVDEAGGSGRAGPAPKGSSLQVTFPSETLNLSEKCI

Q: `O=C(O)c1ccc(CNC(=O)c2cc(Cl)ccc2OCCc2ccccc2)cc1` [EXAMPLE 1, 4-({[5-CHLORO-2-(2-PHENYLETHOXY-)BENZOYL]AMINO}METHYL)BENZOIC ACID] was tested. Which IC50 did it give?
A: 149 nM

Q: `O=C(O)c1ccc(CNC(=O)c2cc(Cl)ccc2OCCc2ccccc2Cl)cc1` [EXAMPLE 2, 4-[({5-CHLORO-2-[2-(2-CHLOROPHENYL)ETHOXY]BENZOYL}AMINO)METHYL]BENZOIC ACID] was tested. Which IC50 did it give?
A: 108 nM

Q: Which IC50 does the source give for `O=C(O)c1ccc(CNC(=O)c2cc(Cl)ccc2OCCc2ccc(F)cc2)cc1` [EXAMPLE 3, 4-[({5-CHLORO-2-[2-(4-FLUOROPHENYL)ETHOXY]BENZOYL}AMINO)METHYL]BENZOIC ACID] here?
A: 126 nM

Q: Which IC50 does the source give for `O=C(O)c1ccc(CNC(=O)c2cc(Cl)ccc2OCCc2ccc(Cl)cc2)cc1` [EXAMPLE 4, 4-[({5-CHLORO-2-[2-(4-CHLOROPHENYL)ETHOXY]BENZOYL}AMINO)METHYL]BENZOIC ACID] here?
A: 107 nM

Q: Which IC50 does the source give for `O=C(O)c1ccc(CNC(=O)c2cc(Cl)ccc2OCc2ccc(Cl)cc2)cc1` [EXAMPLE 6, 4-[({5-CHLORO-2-[(4-CHLOROBENZYL)OXY]BENZOYL)AMINO)METHYL]BENZOIC ACID] here?
A: 441 nM

Q: Which IC50 does the source give for `Cc1ccccc1CCOc1ccc(Cl)cc1C(=O)NCc1ccc(C(=O)O)cc1` [EXAMPLE 7, 4-[({5-CHLORO-2-[2-(2-METHYLPHENYL)ETHOXY]BENZOYL}AMINO)METHYL]BENZOIC ACID] here?
A: 62 nM

Q: Which IC50 does the source give for `C[C@H](NC(=O)c1cc(Cl)ccc1OCCc1c(F)cccc1F)c1ccc(C(=O)O)cc1` [EXAMPLE 8, 4-[(1S)-1-({5-CHLORO-2-[2-(2,6-DIFLUOROPHENYL)ETHOXY]BENZOYL}AMINO)ETHYL]BENZOIC ACID] here?
A: 98 nM

Q: `C[C@H](NC(=O)c1cc(Cl)cnc1OCCc1ccc(F)cc1)c1ccc(C(=O)O)cc1` [EXAMPLE 9, 4-{(1S)-1-[({5-CHLORO-2-[2-(4-FLUOROPHENYL)ETHOXY]PYRIDIN-3-YL}CARBONYL)AMINO]ETHYL}BENZOIC ACID] was tested. Which IC50 did it give?
A: 240 nM

Q: For `C[C@H](NC(=O)c1cc(Cl)ccc1OCCc1ccccc1F)c1ccc(C(=O)O)cc1` [EXAMPLE 10, 4-[(1S)-1-({5-CHLORO-2-[2-(2-FLUOROPHENYL)ETHOXY]BENZOYL}AMINO)ETHYL]BENZOIC ACID], which IC50 is on record?
A: 48 nM

Q: How did the IC50 turn out when `Cc1ccccc1CCOc1ccc(Cl)cc1C(=O)N[C@@H](C)c1ccc(C(=O)O)cc1` [EXAMPLE 11, 4-[(1S)-1-({5-CHLORO-2-[2-(2-METHYLPHENYL)ETHOXY]BENZOYL}AMINO)ETHYL]BENZOIC ACID] was run?
A: 20 nM

Q: `Cc1ccc(CCOc2ccc(Cl)cc2C(=O)N[C@@H](C)c2ccc(C(=O)O)cc2)cc1` [EXAMPLE 12, 4-[(1S)-1-({5-CHLORO-2-[2-(4-METHYLPHENYL)ETHOXY]BENZOYL}AMINO)ETHYL]BENZOIC ACID] was tested. Which IC50 did it give?
A: 21 nM

Q: How did the IC50 turn out when `C[C@H](NC(=O)c1cc(Cl)ccc1OC1CCCCC1)c1ccc(C(=O)O)cc1` [EXAMPLE 13, 4-((1S)-1-{[5-CHLORO-2-(CYCLOHEXYLOXY)BENZOYL]AMINO}ETHYL)BENZOIC ACID] was run?
A: 35 nM

Q: How did the IC50 turn out when `CC(C)CCOc1ccc(Cl)cc1C(=O)N[C@@H](C)c1ccc(C(=O)O)cc1` [EXAMPLE 14, 4-((1S)-1-{[5-CHLORO-2-(3-METHYLBUTOXY)BENZOYL]AMINO}ETHYL)BENZOIC ACID] was run?
A: 41 nM

Q: `C[C@H](NC(=O)c1cc(Cl)cnc1OCCc1ccc(Cl)cc1)c1ccc(C(=O)O)cc1` [EXAMPLE 15, 4-{(1S)-1-[({5-CHLORO-2-[2-(4-CHLOROPHENYL)ETHOXY]PYRIDIN-3-YL}CARBONYL)AMINO]ETHYL}BENZOIC ACID] was tested. Which IC50 did it give?
A: 78 nM

Q: `C[C@H](NC(=O)c1cc(Cl)cnc1N(C)CCc1ccccc1)c1ccc(C(=O)O)cc1` [EXAMPLE 16, 4-{(1S)-1-[({5-CHLORO-2-[METHYL(2-PHENYLETHYL)AMINO]PYRIDIN-3-YL}CARBONYL)AMINO]ETHYL}BENZOIC ACID] was tested. Which IC50 did it give?
A: 350 nM

Q: How did the IC50 turn out when `C[C@H](NC(=O)c1cc(Cl)ccc1O[C@H]1CC[C@@H](C)CC1)c1ccc(C(=O)O)cc1` [EXAMPLE 17, 4-[(1S)-1-({5-CHLORO-2-[(C/S4-METHYLCYCLOHEXYL)OXY]BENZOYL}AMINO)ETHYL]BENZOIC ACID] was run?
A: 510 nM

Q: With `C[C@H](NC(=O)c1cc(Cl)ccc1O[C@H]1CC[C@H](C)CC1)c1ccc(C(=O)O)cc1` [EXAMPLE 18, 4-[(1S)-1-({5-CHLORO-2-[(TRANS-4-METHYLCYCLOHEXYL)OXY]BENZOYL}AMINO)ETHYL]BENZOIC ACID] as the compound, how does the IC50 read?
A: 260 nM

Q: `Cc1ccccc1CCOc1ncc(Cl)cc1C(=O)N[C@@H](C)c1ccc(C(=O)O)cc1` [EXAMPLE 19, 4-{(1S)-1-[({5-CHLORO-2-[2-(2-METHYLPHENYL)ETHOXY]PYRIDIN-3-YL}CARBONYL)AMINO]ETHYL}BENZOIC ACID] was tested. Which IC50 did it give?
A: 130 nM

Q: How did the IC50 turn out when `COC(C)(C)CCOc1ccc(Cl)cc1C(=O)N[C@@H](C)c1ccc(C(=O)O)cc1` [EXAMPLE 20, 4-((1S)-1-{[5-CHLORO-2-(3-METHOXY-3-METHYLBUTOXY)BENZOYL]AMINO}ETHYL)BENZOIC ACID] was run?
A: 510 nM

Q: `CC(C)OCCOc1ccc(Cl)cc1C(=O)N[C@@H](C)c1ccc(C(=O)O)cc1` [EXAMPLE 21, 4-((1S)-1-{[5-CHLORO-2-(2-ISOPROPOXYETHOXY)BENZOYL]AMINO}ETHYL)BENZOIC ACID] was tested. Which IC50 did it give?
A: 200 nM

Q: `C[C@H](NC(=O)c1cc(Cl)ccc1OCc1ccccc1Cl)c1ccc(C(=O)O)cc1` [EXAMPLE 22, 4-[(1S)-1-({5-CHLORO-2-[(2-CHLOROBENZYL)OXY]BENZOYL}AMINO)ETHYL]BENZOIC ACID] was tested. Which IC50 did it give?
A: 13 nM

Q: How did the IC50 turn out when `C[C@H](NC(=O)c1cc(Cl)ccc1OCc1cccc(Cl)c1)c1ccc(C(=O)O)cc1` [EXAMPLE 23, 4-[(1S)-1-({5-CHLORO-2-[(3-CHLOROBENZYL)OXY]BENZOYL}AMINO)ETHYL]BENZOIC ACID] was run?
A: 22 nM

Q: With `C[C@H](NC(=O)c1cc(Cl)ccc1OCc1ccc(Cl)cc1)c1ccc(C(=O)O)cc1` [EXAMPLE 24, 4-[(1S)-1-({5-CHLORO-2-[(4-CHLOROBENZYL)OXY]BENZOYL}AMINO)ETHYL]BENZOIC ACID] as the compound, how does the IC50 read?
A: 29 nM

Q: How did the IC50 turn out when `C[C@H](NC(=O)c1cc(Cl)ccc1OCc1ccc(F)cc1)c1ccc(C(=O)O)cc1` [EXAMPLE 25, 4-[(1S)-1-({5-CHLORO-2-[(4-FLUOROBENZYL)OXY]BENZOYL}AMINO)ETHYL]BENZOIC ACID] was run?
A: 46 nM

Q: `C[C@H](NC(=O)c1cc(Cl)ccc1OCCOc1ccccc1)c1ccc(C(=O)O)cc1` [EXAMPLE 26, 4-((1S)-1-{[5-CHLORO-2-(2-PHENOXYETHOXY)BENZOYL]AMINO}ETHYL)BENZOIC ACID] was tested. Which IC50 did it give?
A: 62 nM

Q: Which IC50 does the source give for `COC(COc1ccc(Cl)cc1C(=O)N[C@@H](C)c1ccc(C(=O)O)cc1)c1ccccc1` (stereo partly drawn) [EXAMPLE 27, 4-((1S)-1-{[5-CHLORO-2-(2-METHOXY-2-PHENYLETHOXY)BENZOYL]AMINO}ETHYL)BENZOIC ACID] here?
A: 140 nM

Q: How did the IC50 turn out when `C[C@H](NC(=O)c1cc(Cl)ccc1OCCOc1ccc(F)cc1)c1ccc(C(=O)O)cc1` [EXAMPLE 28, 4-[(1S)-1-({5-CHLORO-2-[2-(4-FLUOROPHENOXY)ETHOXY]BENZOYL}AMINO)ETHYL]BENZOIC ACID] was run?
A: 210 nM

Q: How did the IC50 turn out when `C[C@H](NC(=O)c1cc(Cl)ccc1OCC1CCC1)c1ccc(C(=O)O)cc1` [EXAMPLE 29, 4-((1S)-1-{[5-CHLORO-2-(CYCLOBUTYLMETHOXY)BENZOYL]AMINO}ETHYL)BENZOIC ACID] was run?
A: 30 nM

Q: How did the IC50 turn out when `CC(C)COc1ccc(Cl)cc1C(=O)N[C@@H](C)c1ccc(C(=O)O)cc1` [EXAMPLE 30, 4-{(1S)-1-[(5-CHLORO-2-ISOBUTOXYBENZOYL)AMINO}ETHYL]BENZOIC ACID] was run?
A: 140 nM

Q: Which IC50 does the source give for `CC(C)CCOc1ncc(Cl)cc1C(=O)N[C@@H](C)c1ccc(C(=O)O)cc1` [EXAMPLE 31, 4-[(1S)-1-({[5-CHLORO-2-(3-METHYLBUTOXY)PYRIDIN-3-YL]CARBONYL}AMINO)ETHYL]BENZOIC ACID] here?
A: 140 nM

Q: Which IC50 does the source give for `C[C@H](NC(=O)c1cc(Cl)ccc1OCc1cc(F)ccc1F)c1ccc(C(=O)O)cc1` [EXAMPLE 32, 4-[(1S)-1-({5-CHLORO-2-[(2,5-DIFLUOROBENZYL)OXY]BENZOYL}AMINO)ETHYL]BENZOIC ACID] here?
A: 50 nM

Q: Which IC50 does the source give for `C[C@H](NC(=O)c1cc(Cl)ccc1OCc1ccc(F)c(F)c1)c1ccc(C(=O)O)cc1` [EXAMPLE 33, 4-[(1S)-1-({5-CHLORO-2-[(3,4-DIFLUOROBENZYL)OXY]BENZOYL}AMINO)ETHYL]BENZOIC ACID] here?
A: 63 nM

Q: With `C[C@H](NC(=O)c1cc(Cl)ccc1OCCc1ccc(F)cc1)c1ccc(C(=O)O)cc1` [EXAMPLE 34, 4-[(1S)-1-({5-CHLORO-2-[2-(4-FLUOROPHENYL)ETHOXY]BENZOYL}AMINO)ETHYL]BENZOIC ACID] as the compound, how does the IC50 read?
A: 41 nM

Q: `C[C@H](NC(=O)c1cc(Cl)ccc1OCc1ccc(F)cc1F)c1ccc(C(=O)O)cc1` [EXAMPLE 35, 4-[(1S)-1-({5-CHLORO-2-[(2,4-DIFLUOROBENZYL)OXY]BENZOYL}AMINO)ETHYL]BENZOIC ACID] was tested. Which IC50 did it give?
A: 110 nM

Q: How did the IC50 turn out when `C[C@H](NC(=O)c1cc(Cl)ccc1OCc1ccccc1F)c1ccc(C(=O)O)cc1` [EXAMPLE 36, 4-[(1S)-1-({5-CHLORO-2-[(2-FLUOROBENZYL)OXY]BENZOYL}AMINO)ETHYL]BENZOIC ACID] was run?
A: 170 nM

Q: Which IC50 does the source give for `C[C@H](NC(=O)c1cc(Cl)ccc1OCc1cc(F)cc(F)c1)c1ccc(C(=O)O)cc1` [EXAMPLE 37, 4-[(1S)-1-({5-CHLORO-2-[(3,5-DIFLUOROBENZYL)OXY]BENZOYL}AMINO)ETHYL]BENZOIC ACID] here?
A: 78 nM

Q: How did the IC50 turn out when `C[C@H](NC(=O)c1cc(Cl)ccc1OCc1ccccc1)c1ccc(C(=O)O)cc1` [EXAMPLE 38, 4-((1S)-1-{[2-(BENZYLOXY)-5-CHLOROBENZOYL]AMINO}ETHYL)BENZOIC ACID] was run?
A: 75 nM

Source: patent US20050250818A1, “Ortho substituted aryl or heteroaryl amide compounds” (Pfizer Inc, priority 2004, published 2005)
